# Read-outs that look alike come from different tables or passages of the source.
# Assays:
# [1] = tested on: P. aeruginosa Xen5; format: in vivo, Pseudomonas aeruginosa
# Experimental: (§1) Catheter-associated UTI with Pseudomonas aeruginosa Xen5 (10^6 CFU/catheter) in CF-1 female mice was established as described by Kadurugamuwa et al. (2005) Infection and Immunity 73(7):3878-87). Gallium maltolate (GaM) was assessed for efficacy against urinary tract infection (UTI) by P. aeruginosa, alone or in combination with ciprofloxacin (cipro) using bioluminescent engineered P. aeruginosa Xen5 in a CF-1 female mice UTI model that allows real time monitoring of infection with the Xenogen IVIS® Imaging System.
# (§2) Catheter-associated UTI with P. aeruginosa (10^6 colony forming units (CFU)/catheter) were established in mice and treated 2 days after infection for 4 consecutive days with GaM alone; or cipro alone; or the combination of GaM and cipro. A second cycle of treatment was started on days 9-11 and the study terminated on day 21. Controls included saline-treated uninfected and infected animals.
# [2] = tested on: P. aeruginosa Xen 5; format: in vivo, Pseudomonas aeruginosa
# Experimental: as §1, §2
# [3] = tested on: Pseudomonas aeruginosa Xen5; test: Biophotonic monitoring of catheter-associated UTI with bioluminescent P. aeruginosa Xen5 in CF-1 female mice; format: in vivo
# Experimental: as §1, §2
# Ciprofloxacin US Pharmacopeia, Rockville, Md.) and gallium maltolate were administered by oral gavage. Ciprofloxacin was given in 0.2 mL of water and gallium maltolate in 0.2 mL water containing 1% carboxylmethyl cellulose. A second group of animals served as an untreated infection control group by being implanted with infected catheters and treated with saline. In another control group, animals were implanted with sterile catheters and served as a negative control.
# Therapeutic agents were readministered for 3 consecutive days, after 4 days of cessation of the initial 4-day therapy.
# [4] = Pharmacokinetics of serum gallium (ICP-MS) after oral gallium maltolate in female CF-1 mice; format: in vivo; details: 30 and 300 mg/kg oral gavage q.d. for 4 days
# Experimental: Adult, female CF-1 mice (initial weight range 32-39 gram) were treated with 30 and 300 mg/kg gallium maltolate by oral gavage q.d. for 4 consecutive days. Both doses were administered in the same volume of drug solution, i.e., 480 μL of 2.5 and 25 mg/mL gallium maltolate in 1% carboxyl methylcellulose. Blood was drawn at the following time points after the final dose administration: 0, 0.5, 1 3, 6, 9, 12, 24, 33 and 48 hours. Blood drawn at time point ‘0’ was taken immediately after dosing. Blood samples were collected within ±5% of the scheduled time point. Whole blood (500 to 1000 μL) was drawn from a single mouse by cardiac puncture, and four mice were sacrificed per time point for each dosing group. After blood collection, the specimens were held at room temperature to allow for clot formation followed by centrifugation to obtain serum. The concentration of gallium in 100 μL serum was determined by Inductively Coupled Plasma—Mass Spectrometry (ICP-MS).
# After a weighted linear regression analysis calibration curve had been established and validated by quality control analysis, serum gallium concentrations in the samples were measured and the results plotted.
# [5] = ciprofloxacin 30 mg/kg b.i.d. oral
# [6] = 7 days after infection, ciprofloxacin 30 mg/kg b.i.d. oral
# [7] = 11 days after infection, ciprofloxacin 30 mg/kg b.i.d. oral
# [8] = 14 days after infection, ciprofloxacin 30 mg/kg b.i.d. oral
# [9] = 16 days after infection, ciprofloxacin 30 mg/kg b.i.d. oral
# [10] = 17 days after infection, ciprofloxacin 30 mg/kg b.i.d. oral
# [11] = 21 days after infection, ciprofloxacin 30 mg/kg b.i.d. oral
# [12] = gallium maltolate 30 mg/kg q.d. oral
# [13] = gallium maltolate 100 mg/kg q.d. oral
# [14] = gallium maltolate 300 mg/kg q.d. oral
# [15] = 7 days after infection, gallium maltolate 300 mg/kg q.d. oral
# [16] = 11 days after infection, gallium maltolate 30 mg/kg q.d. oral
# [17] = 11 days after infection, gallium maltolate 100 mg/kg q.d. oral
# [18] = 11 days after infection, gallium maltolate 300 mg/kg q.d. oral
# [19] = 14 days after infection, gallium maltolate 300 mg/kg q.d. oral
# [20] = 16 days after infection, gallium maltolate 30 mg/kg q.d. oral
# [21] = 16 days after infection, gallium maltolate 100 mg/kg q.d. oral
# [22] = 16 days after infection, gallium maltolate 300 mg/kg q.d. oral
# [23] = 17 days after infection, gallium maltolate 30 mg/kg q.d. oral
# [24] = 17 days after infection, gallium maltolate 100 mg/kg q.d. oral
# [25] = 17 days after infection, gallium maltolate 300 mg/kg q.d. oral
# [26] = 21 days after infection, gallium maltolate 30 mg/kg q.d. oral
# [27] = 21 days after infection, gallium maltolate 100 mg/kg q.d. oral
# [28] = 21 days after infection, gallium maltolate 300 mg/kg q.d. oral
structure (smiles),measurement,setting,value
"O=C(O)c1cn(C2CC2)c2cc(N3CCNCC3)c(F)cc2c1=O [Ciprofloxacin, reference compound]",% Mortality,[1]; [5],12.5%
same,No. of animals with a kidney signal at day 21/Total no. of animals,[1]; [5],1/7
same,"Bacterial counts in urine, Geometric Mean",[2]; [6],3.3 × 10^3 CFU/ml
same,Range of bacterial counts in urine,[2]; [6],2.0 × 10^2-7.0 × 10^5 CFU/ml
same,"Bacterial counts in urine, Geometric Mean",[2]; [7],2.0 × 10^2 CFU/ml
same,Range of bacterial counts in urine,[2]; [7],2.0 × 10^2 CFU/ml
same,"Bacterial counts in urine, Geometric Mean",[2]; [8],1.1 × 10^5 CFU/ml
same,Range of bacterial counts in urine,[2]; [8],2.0 × 10^2-1.2 × 10^7 CFU/ml
same,"Bacterial counts in urine, Geometric Mean",[2]; [9],3.2 × 10^4 CFU/ml
same,Range of bacterial counts in urine,[2]; [9],2.0 × 10^2-6.0 × 10^5 CFU/ml
same,"Bacterial counts in urine, Geometric Mean",[2]; [10],1.2 × 10^5 CFU/ml
same,Range of bacterial counts in urine,[2]; [10],2.0 × 10^2-8.0 × 10^6 CFU/ml
same,"Bacterial counts in urine, Geometric Mean",[2]; [11],2.2 × 10^5 CFU/ml
same,Range of bacterial counts in urine,[2]; [11],2.0 × 10^2-3.6 × 10^7 CFU/ml
same,Percent bacterial growth in animals compared to untreated control,"[3]; Day 2, ciprofloxacin 30 mg/kg b.i.d. oral",100%
same,Percent bacterial growth in animals compared to untreated control,"[3]; Day 5, ciprofloxacin 30 mg/kg b.i.d. oral",3%
same,Percent bacterial growth in animals compared to untreated control,"[3]; Day 8, ciprofloxacin 30 mg/kg b.i.d. oral",9%
same,Percent bacterial growth in animals compared to untreated control,"[3]; Day 10, ciprofloxacin 30 mg/kg b.i.d. oral",2%
same,Percent bacterial growth in animals compared to untreated control,"[3]; Day 15, ciprofloxacin 30 mg/kg b.i.d. oral",138%
same,Percent bacterial growth in animals compared to untreated control,"[3]; Day 21, ciprofloxacin 30 mg/kg b.i.d. oral",272%
same,Bioluminescent signal after discontinuing first ciprofloxacin treatment,[3]; approximately two days after discontinuing the initial 4-day therapy,reestablishment of the infection upon cessation of antibiotic therapy
same,Bioluminescent signal in the bladder compared to untreated control,"[3]; ciprofloxacin 30 mg/kg b.i.d., after four days of treatments",rapid decline in bioluminescent signal to almost nearly to undetectable levels
same,Bioluminescence signal on re-administration of antibiotic,[3]; re-administration for three consecutive days,repeat decline in the bioluminescence signal
same,Infection after discontinuation of second bout of ciprofloxacin treatment,[3]; soon after discontinuation of second treatment cycle,infection re-established once again and approximately reached untreated levels
"Cc1occc(=O)c1[O-].Cc1occc(=O)c1[O-].Cc1occc(=O)c1[O-].[Ga+3] [Gallium maltolate, gallium maltolate]",Kidney infections at the termination of the study,"[1]; at all doses tested, day 21",free of kidney infections
same,% Mortality,[1]; [12],25.0%
same,No. of animals with a kidney signal at day 21/Total no. of animals,[1]; [12],0/3
same,% Mortality,[1]; [13],25.0%
same,No. of animals with a kidney signal at day 21/Total no. of animals,[1]; [13],0/3
same,% Mortality,[1]; [14],0.0%
same,No. of animals with a kidney signal at day 21/Total no. of animals,[1]; [14],0/4
same,"Bacterial counts in urine, Geometric Mean",[2]; [15],3.0 × 10^5 CFU/ml
same,Range of bacterial counts in urine,[2]; [15],1.3 × 10^5-1.5 × 10^6 CFU/ml
same,"Bacterial counts in urine, Geometric Mean",[2]; [16],1.5 × 10^5 CFU/ml
same,Range of bacterial counts in urine,[2]; [16],1.2 × 10^5-1.8 × 10^5 CFU/ml
same,"Bacterial counts in urine, Geometric Mean",[2]; [17],4.6 × 10^4 CFU/ml
same,Range of bacterial counts in urine,[2]; [17],2.0 × 10^2-6.0 × 10^6 CFU/ml
same,"Bacterial counts in urine, Geometric Mean",[2]; [18],1.1 × 10^5 CFU/ml
same,Range of bacterial counts in urine,[2]; [18],2.2 × 10^4-6.2 × 10^5 CFU/ml
same,"Bacterial counts in urine, Geometric Mean",[2]; [19],2.3 × 10^5 CFU/ml
same,Range of bacterial counts in urine,[2]; [19],1.2 × 10^5-6.0 × 10^5 CFU/ml
same,"Bacterial counts in urine, Geometric Mean",[2]; [20],2.4 × 10^5 CFU/ml
same,Range of bacterial counts in urine,[2]; [20],1.2 × 10^5-6.0 × 10^5 CFU/ml
same,"Bacterial counts in urine, Geometric Mean",[2]; [21],1.1 × 10^4 CFU/ml
same,Range of bacterial counts in urine,[2]; [21],2.0 × 10^2-3.0 × 10^6 CFU/ml
same,"Bacterial counts in urine, Geometric Mean",[2]; [22],5.8 × 10^5 CFU/ml
same,Range of bacterial counts in urine,[2]; [22],3.2 × 10^5-8 × 10^5 CFU/ml
same,"Bacterial counts in urine, Geometric Mean",[2]; [23],1.6 × 10^5 CFU/ml
same,Range of bacterial counts in urine,[2]; [23],4.0 × 10^4-6.0 × 10^5 CFU/ml
same,"Bacterial counts in urine, Geometric Mean",[2]; [24],2.9 × 10^4 CFU/ml
same,Range of bacterial counts in urine,[2]; [24],2.0 × 10^2-2.0 × 10^6 CFU/ml
same,"Bacterial counts in urine, Geometric Mean",[2]; [25],3.2 × 10^5 CFU/ml
same,Range of bacterial counts in urine,[2]; [25],4.0 × 10^4-1.6 × 10^6 CFU/ml
same,"Bacterial counts in urine, Geometric Mean",[2]; [26],1.6 × 10^5 CFU/ml
same,Range of bacterial counts in urine,[2]; [26],1.2 × 10^4-2.0 × 10^6 CFU/ml
same,"Bacterial counts in urine, Geometric Mean",[2]; [27],8.2 × 10^3 CFU/ml
same,Range of bacterial counts in urine,[2]; [27],2.0 × 10^2-1.4 × 10^6 CFU/ml
same,"Bacterial counts in urine, Geometric Mean",[2]; [28],3.1 × 10^5 CFU/ml
same,Range of bacterial counts in urine,[2]; [28],1.6 × 10^5-5.6 × 10^6 CFU/ml
same,Percent bacterial growth in animals compared to untreated control,"[3]; Day 2, gallium maltolate 30 mg/kg q.d. oral",100%
same,Percent bacterial growth in animals compared to untreated control,"[3]; Day 2, gallium maltolate 100 mg/kg q.d. oral",100%
same,Percent bacterial growth in animals compared to untreated control,"[3]; Day 2, gallium maltolate 300 mg/kg q.d. oral",100%
same,Percent bacterial growth in animals compared to untreated control,"[3]; Day 5, gallium maltolate 30 mg/kg q.d. oral",60%
same,Percent bacterial growth in animals compared to untreated control,"[3]; Day 5, gallium maltolate 100 mg/kg q.d. oral",33%
same,Percent bacterial growth in animals compared to untreated control,"[3]; Day 5, gallium maltolate 300 mg/kg q.d. oral",19%
same,Percent bacterial growth in animals compared to untreated control,"[3]; Day 8, gallium maltolate 30 mg/kg q.d. oral",10%
same,Percent bacterial growth in animals compared to untreated control,"[3]; Day 8, gallium maltolate 100 mg/kg q.d. oral",12%
same,Percent bacterial growth in animals compared to untreated control,"[3]; Day 8, gallium maltolate 300 mg/kg q.d. oral",7%
same,Percent bacterial growth in animals compared to untreated control,"[3]; Day 10, gallium maltolate 30 mg/kg q.d. oral",13%
same,Percent bacterial growth in animals compared to untreated control,"[3]; Day 10, gallium maltolate 100 mg/kg q.d. oral",2%
same,Percent bacterial growth in animals compared to untreated control,"[3]; Day 10, gallium maltolate 300 mg/kg q.d. oral",4%
same,Percent bacterial growth in animals compared to untreated control,"[3]; Day 15, gallium maltolate 30 mg/kg q.d. oral",54%
same,Percent bacterial growth in animals compared to untreated control,"[3]; Day 15, gallium maltolate 100 mg/kg q.d. oral",11%
same,Percent bacterial growth in animals compared to untreated control,"[3]; Day 15, gallium maltolate 300 mg/kg q.d. oral",20%
same,Percent bacterial growth in animals compared to untreated control,"[3]; Day 21, gallium maltolate 30 mg/kg q.d. oral",22%
same,Percent bacterial growth in animals compared to untreated control,"[3]; Day 21, gallium maltolate 100 mg/kg q.d. oral",1%
same,Percent bacterial growth in animals compared to untreated control,"[3]; Day 21, gallium maltolate 300 mg/kg q.d. oral",8%
same,Recurrence of infection after termination of administration,[3]; gallium maltolate 300 mg/kg,recurrence of high levels of infection did not occur
same,Bioluminescence signal level,"[3]; gallium maltolate 300 mg/kg, remained until termination on day 21",approximately 10^5 photons/catheter
same,Antibacterial growth activity compared to untreated control,[3]; gallium maltolate 30 and 100 mg/kg,showed antibacterial growth activity
same,Initial half-life of elimination of serum gallium,[4],8 to 12 h
same,Time of peak serum gallium concentration,[4]; after final dose,within half hour
